Where two headings read alike, the source gives them in different places.
How the values were obtained:
CYP450s [1] = assay: in vitro; format: in vitro ADME; details: both sexes, Sprague-Dawley, rat, pH 7.4, rat liver microsomes, gender-mixed
Procedure: (§1) In vitro incubations were performed to obtain kinetic parameters for the CYP450s-catalyzed conversion of FNT to FNO and MNP using gender-mixed rat and human liver microsomes. For the PON1-dominated detoxification of FNO to MNP, in vitro incubations were conducted with gender-mixed liver microsomes or plasma from rats and humans. Sample extraction with diisopropyl ether was performed before UPLC-PDA analysis. More details on in vitro incubations, sample extraction, UPLC-PDA analysis, and calculation of kinetic parameters are provided in the Supporting Information.
(§2) Supplementary materials and methods
Chemical and biological materials […]
(§3) Human liver microsomes (pooled from 150 donors, mixed gender) and pooled male rat liver microsomes (Sprague-Dawley) were purchased from Corning (Amsterdam, The Netherlands). […] Human plasma (pooled from 25 donors, mixed gender) and rat plasma (Sprague-Dawley, mixed gender) were ordered from BioIVT (West Sussex, UK), and corresponding total protein concentrations were determined using BCA protein assay (Supporting Information). […]

CYP450s [2] = assay: in vitro; format: in vitro ADME, human; details: gender-mixed
Procedure: as §1, §2
Chemical and biological materials
FNT, acetylthiocholine iodide (ATC), 5,5’-dithiobis (2-nitrobenzoic acid) (DTNB), ethopropazine, tetraisopropyl pyrophosphoramide (iso-OMPA), perchloric acid (HClO4), trifluoroacetic acid (TFA), EDTA, MgCl2•6H2O, CaCl2•2H2O, NaH2PO4, Na2HPO4, Triton-X 100, Trizma® base and diisopropyl ether (DIPE) were ordered from Sigma-Aldrich (Amsterdam, The Netherlands). FNO was purchased from FUJIFILM Wako Pure Chemical Corporation (Tokyo, Japan), MNP and reduced nicotinamide adenine dinucleotide phosphate (NADPH) from Carbosynth Ltd. (Compton, UK). Acetonitrile (UPLC/MS grade), methanol (UPLC/MS grade) and ethanol (UPLC/MS grade) were ordered from Biosolve (Valkenswaard, The Netherlands). Chlorpyrifos-oxon was ordered from TRC-Canada (Toronto, Ontario, Canada). Ultrapure water was prepared using a Sartorius Arium® Pro ultrapure water system (Göttingen, Germany).
as §3, with “Netherlands). Pooled female rat liver microsomes (Sprague-Dawley) were ordered from Sigma-Aldrich (St. Louis, MO, USA).” for “Netherlands).”

erythrocyte AChE = details: human, highest dose tested, cited from earlier work

COP(=S)(OC)Oc1ccc([N+](=O)[O-])c(C)c1 [FNT, O,O-dimethyl O-4-nitro-m-tolyl phosphorothioate]
Km (CYP450s [1]; read-out: Km, FNT to FNO (CYP450s-catalyzed)): 8.28 µM | Km (CYP450s [1]; read-out: Km, FNT to MNP (CYP450s-catalyzed)): 20.5 µM | Km (CYP450s [2]; both sexes, human, pH 7.4, human liver microsomes, read-out: Km, FNT to FNO (CYP450s-catalyzed)): 21.6 µM | Km (CYP450s [2]; both sexes, human, pH 7.4, human liver microsomes, read-out: Km, FNT to MNP (CYP450s-catalyzed)): 4.08 µM | Km (CYP450s [2]; human liver microsomes, read-out: Km, FNT to MNP (CYP450s-catalyzed)): 4.08 µM | reported NOAEL (erythrocyte AChE; APVMA, single dose human study): 0.33 mg/kg BW | reported NOAEL (erythrocyte AChE; JMPR, 4 day study in human volunteers): 0.36 mg/kg BW

From PMC10720383, “Acetylcholinesterase Inhibition in Rats and Humans Following Acute Fenitrothion Exposure Predicted by Physiologically Based Kinetic Modeling-Facilitated Quantitative In Vitro to In Vivo Extrapolation” (Environmental Science & Technology, 2023)
